Test results published in patent publication US20230374143A1, “A SORTILIN ANTAGONIST FOR USE IN THE PREVENTION OR TREATMENT OF HEARING LOSS” (Insusense ApS, priority 2020, published 2023).

Target: T1, hSortilin (Homo sapiens, UniProt Q99523)
T1 sequence (Q99523 78-831): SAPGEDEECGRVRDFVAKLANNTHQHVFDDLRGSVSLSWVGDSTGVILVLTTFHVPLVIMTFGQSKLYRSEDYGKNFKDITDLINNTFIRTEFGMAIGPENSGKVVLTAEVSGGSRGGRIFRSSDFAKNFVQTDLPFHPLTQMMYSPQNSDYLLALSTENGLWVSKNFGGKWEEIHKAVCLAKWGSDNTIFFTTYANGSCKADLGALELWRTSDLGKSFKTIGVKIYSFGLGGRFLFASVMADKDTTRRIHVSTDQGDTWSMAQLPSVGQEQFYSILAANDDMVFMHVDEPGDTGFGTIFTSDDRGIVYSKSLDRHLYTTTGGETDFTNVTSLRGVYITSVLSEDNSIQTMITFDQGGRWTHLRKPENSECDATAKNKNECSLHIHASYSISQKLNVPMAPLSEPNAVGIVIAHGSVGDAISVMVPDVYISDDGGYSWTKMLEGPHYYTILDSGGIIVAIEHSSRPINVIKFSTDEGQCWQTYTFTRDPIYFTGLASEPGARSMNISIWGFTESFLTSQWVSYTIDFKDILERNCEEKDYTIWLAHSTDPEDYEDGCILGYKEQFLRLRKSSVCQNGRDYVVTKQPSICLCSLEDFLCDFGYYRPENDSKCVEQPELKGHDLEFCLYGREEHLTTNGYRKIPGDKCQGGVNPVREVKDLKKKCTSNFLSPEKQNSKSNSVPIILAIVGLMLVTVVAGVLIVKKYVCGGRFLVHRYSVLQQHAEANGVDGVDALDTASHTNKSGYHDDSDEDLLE
Assay: Neurotensin SPA assay with [125I]-Neurotensin
Assay type: binding
Conditions: [125I]-Neurotensin; read-out: Observed IC50
Source text: All values reported are average of at least 4 determinations.^8

SMILES | IC50 [µM]
CC(C)(C)CC[C@H](NC(=O)c1ccc(Oc2ccccc2)nc1)C(=O)O (racemic) [*Example 44] | 0.12

Same assay, conditions: observed versus expected IC50

SMILES | Fold difference between calculated and expected
CC(C)(C)CC[C@H](NC(=O)c1ccc(Oc2ccccc2)nc1)C(=O)O (racemic) [*Example 44] | 6

System: not listed separately
Assay: Poloxamer gelling tests at 20° C. and 37° C.
Assay type: physicochemical
Conditions: 14% poloxamer gel, compound at 1 mg/mL
Source text: In a preferred embodiment, the sortilin antagonists herein described may be administered in a gel formulation, preferably a Poloxamer 407 gel formulation. Said formulation may comprise the following excipients, reactants and solvents; Poloxamer 407, 5% glucose, Sodium dihydrogenophosphate, Di-sodium hydrogenophosphate, acetonitrile, trifluoroacetic acid and de-ionized water. Preferably, the gel formulation is a 14% poloxamer solution in diluted pH 7.4 phosphate buffer (0.013M) in deionized water. […] (body temperature), see Table 1 below. […] Accordingly, the aforementioned gel formulation is an appropriate vehicle solution to administer said compounds.

SMILES | properties of the poloxamer gel formulation after addition of compound
Cc1cccc(NC(=O)c2ccc(C(F)(F)F)cc2C(=O)O)n1 [Example 8, 2-[(6-methylpyridin-2-yl)carbamoyl]-5-(trifluoromethyl)benzoic acid] | unaltered

Target: T2, SORT (Homo sapiens, UniProt Q99523)
T2 sequence (Q99523 78-831): T1 sequence (Q99523 78-831)
Assay: progranulin (PGRN) peptide/SORT homogenous time-resolved fluorescence (HTRF) assay
Assay type: binding
Conditions: SORT 1 nM, biotinylated 18-mer PGRN peptide 4 nM, TR-FRET
Experimental: To determine the IC50s of compounds bound to SORT and thus preventing its interaction with the biotinylated 18-mer PGRN peptide a time-resolved fluorescence resonance energy transfer (TR-FRET) format was used. All test compounds were dissolved in DMSO; the final concentration of DMSO in the reaction buffer was 1%. Compounds were prepared in a ten-point, three-fold serial dilution scheme using an acoustic dispenser. A solution of SORT protein in assay buffer (10 mM HEPES, pH 7.3, 150 mM NaCl, 0.005% Brij-35 and 0.01% BSA, final concentration of SORT 1 nM) was added to each well and pre-incubated with compounds or DMSO vehicle at ambient temperature for 10 min with gentle shaking. Next, biotinylated 18-mer PGRN peptide was added to each well (final concentration 4 nM) and the binding reactions were incubated at ambient temperature for 30 min with gentle shaking. Solutions of SA/Dylight in assay buffer were added to each well, immediately followed by addition of Eu/anti-His in assay buffer. […] Data were analyzed using ABase and a 4-parameter logistic fit based on the Levenberg-Marquardt algorithm.^9

SMILES | IC50 [µM]
CC(C)(C)CC(NC(=O)c1cc(Cl)cc(Cl)c1)c1nn[nH]n1 (centres unmarked) [Example 62, 3,5-dichloro-N-[3,3-dimethyl-1-(2H-1,2,3,4-tetrazol-5-yl)butyl]benzamide] | 6.9
CC(C)(C)CC[C@H](NC(=O)c1ccc(Oc2ccccc2)nc1)C(=O)O (single isomer, unassigned) [Example 44] | 0.02
CC(C)(C)CC[C@H](NC(=O)c1cc(Cl)cc(Cl)c1)C(=O)O (single isomer, unassigned) [Example 42] | 0.17
CC(C)(C)c1cc(C(=O)O)n(Cc2ccc(-n3cccn3)nc2)n1 [Example 33, 3-tert-butyl-1-{[6-(1H-pyrazol-1-yl)pyridin-3-yl]methyl}-1H-pyrazole-5-carboxylic acid] | 3
Cn1nc(C(C)(C)C)cc1C(=O)O [Example 35, 3-tert-butyl-1-methyl-1H-pyrazole-5-carboxylic acid] | 8.3
CC(C)C[C@H](NC(=O)C(C)(C)Cc1ccc(Cl)cc1)C(=O)O [Example 49, (2S)-2-{2-[(4-chlorophenyl)methyl]-2-methylpropanamido}-4-methylpentanoic acid] | 6.8
CC(C)(C)CCc1cc(C(=O)O)n(Cc2ccccc2)n1 [Example 41, 1-benzyl-3-(3,3-dimethylbutyl)-1H-pyrazole-5-carboxylic acid] | > 67
CC(C)C[C@H](NC(=O)c1cnc2ccccc2n1)C(=O)O [Example 51, (2S)-4-methyl-2-[(quinoxalin-2-yl)formamido]pentanoic acid] | 6.3
CC(C)(C)OC[C@H](NC(=O)c1cc(Cl)cc(Cl)c1)C(=O)O [Example 60, (2S)-3-(tert-butoxy)-2-[(3,5-dichlorophenyl)formamido]propanoic acid] | 1.5
CC(C)(C)CC[C@H](NC(=O)c1cc(Cl)c[nH]1)C(=O)O (single isomer, unassigned) [Example 43] | 0.09
CC(C)(C)c1cc(C(=O)O)n(Cc2ccccc2)n1 [Example 31, 1-benzyl-3-tert-butyl-1H-pyrazole-5-carboxylic acid] | 2
CC(C)(C)c1cc(C(=O)O)n(Cc2ccc(Oc3ccccc3)nc2)n1 [Example 34, 3-tert-butyl-1-[(6-phenoxypyridin-3-yl)methyl]-1H-pyrazole-5-carboxylic acid] | 2.1
CC(C)C[C@H](NC(=O)C1CN(Cc2cc(Cl)cc(Cl)c2)CCO1)C(=O)O (stereo partly drawn) [Example 53, (2S)-2-({4-[(3,5-dichlorophenyl)methyl]morpholin-2-yl}formamido)-4-methylpentanoic acid] | 14.4
CC(C)C[C@H](NC(=O)C1CCCC1)C(=O)O [Example 52, (2S)-2-(cyclopentylformamido)-4-methylpentanoic acid] | 25.3
O=C(N[C@@H](CC12CC(C1)C2)C(=O)O)c1cc(Cl)cc(Cl)c1 [Example 58, (2S)-3-{bicyclo[1.1.1]pentan-1-yl}-2-[(3,5-dichlorophenyl)formamido]propanoic acid] | 18
CC(C)(C)c1cc(C(=O)O)n(CCc2ccccc2)n1 [Example 37, 3-tert-butyl-1-(2-phenylethyl)-1H-pyrazole-5-carboxylic acid] | 5.3
O=C(N[C@@H](Cc1ccccc1)C(=O)O)c1cc(Cl)cc(Cl)c1 [Example 59, (2S)-2-[(3,5-dichlorophenyl)formamido]-3-phenylpropanoic acid] | > 67

SMILES | IC50 [µM]
CC(C)C[C@H](NC(=O)c1cccc(Cl)c1)C(=O)O [Example 47, (2S)-2-[(3-chlorophenyl)formamido]-4-methylpentanoic acid] | 4.5
CC(C)C[C@H](NC(=O)c1ccc(Cl)c(Cl)c1)C(=O)O [Example 45, (2S)-2-[(3,4-dichlorophenyl)formamido]-4-methylpentanoic acid] | 4.3
C=C(C)C[C@H](NC(=O)c1cc(Cl)cc(Cl)c1)C(=O)O [Example 54, (2S)-2-[(3,5-dichlorophenyl)formamido]-4-methylpent-4-enoic acid] | 17.1
CC(C)(C)c1cc(C(=O)O)n(Cc2cc(Cl)cc(Cl)c2)n1 [Example 32, 3-tert-butyl-1-[(3,5-dichlorophenyl)methyl]-1H-pyrazole-5-carboxylic acid] | 2.1
CC(C)C[C@H](NC(=O)c1cc(Cl)cc(Cl)c1)C(=O)O [Example 46, (2S)-2-[(3,5-dichlorophenyl)formamido]-4-methylpentanoic acid] | 2.7
CC(C)(C)C[C@H](NC(=O)c1cc(Cl)cc(Cl)c1)C(=O)O [Example 57, (2S)-2-[(3,5-dichlorophenyl)formamido]-4,4-dimethylpentanoic acid] | 0.35
COc1cccc(C(=O)N[C@@H](CC(C)C)C(=O)O)c1 [Example 48, (2S)-2-[(3-methoxyphenyl)formamido]-4-methylpentanoic acid] | 6.8
CC(C)c1cc(C(=O)O)n(CCc2ccccc2)n1 [Example 40, 1-(2-phenylethyl)-3-(propan-2-yl)-1H-pyrazole-5-carboxylic acid] | > 67
CC(C)(C)C[C@H](NC(=O)c1ccc(Oc2ccccc2)nc1)C(=O)O [Example 64, (2S)-4,4-dimethyl-2-[(6-phenoxypyridin-3-yl)formamido]pentanoic acid] | 0.065
CC(C)C[C@H](NC(c1cc(Cl)cc(Cl)c1)C(F)(F)F)C(=O)O (stereo partly drawn) [Example 63, (2S)-2-{[1-(3,5-dichlorophenyl)-2,2,2-trifluoroethyl]amino}-4-methylpentanoic acid] | 10.8
O=C(N[C@@H](CC1CC1)C(=O)O)c1cc(Cl)cc(Cl)c1 [Example 55, (2S)-3-cyclopropyl-2-[(3,5-dichlorophenyl)formamido]propanoic acid] | 10.7
CC(C)(C)Cc1cc(C(=O)O)n(Cc2ccccc2)n1 [Example 39, 1-benzyl-3-(2,2-dimethylpropyl)-1H-pyrazole-5-carboxylic acid] | 6.6
CC(OC(C)(C)C)[C@H](NC(=O)c1cc(Cl)cc(Cl)c1)C(=O)O (stereo partly drawn) [Example 61, (2S)-3-(tert-butoxy)-2-[(3,5-dichlorophenyl)formamido]butanoic acid] | > 67
CC(C)C[C@H](NC(=O)c1cnn(C)c1)C(=O)O [Example 50, (2S)-4-methyl-2-[(1-methyl-1H-pyrazol-4-yl)formamido]pentanoic acid] | 5.3
CC(C)(C)c1cc(C(=O)O)n(-c2ccccc2)n1 [Example 36, 3-tert-butyl-1-phenyl-1H-pyrazole-5-carboxylic acid] | 7.6
O=C(N[C@@H](CC1CCCCC1)C(=O)O)c1cc(Cl)cc(Cl)c1 [Example 56, (2S)-3-cyclohexyl-2-[(3,5-dichlorophenyl)formamido]propanoic acid] | 2.3
CC(C)(C)c1cc(C(=O)O)n(Cc2nnc(-c3ccccc3)o2)n1 [Example 38, 3-tert-butyl-1-[(5-phenyl-1,3,4-oxadiazol-2-yl)methyl]-1H-pyrazole-5-carboxylic acid] | 0.49

Target: T1, hSortilin
Assay: not given
Conditions: expected value, compared with the [125I]-Neurotensin SPA result; cited from earlier work

SMILES | IC50 [µM]
CC(C)(C)CC[C@H](NC(=O)c1ccc(Oc2ccccc2)nc1)C(=O)O (racemic) [*Example 44] | 0.02
